{"source": "the NIST ThermoML archive (doi:10.1016/j.jct.2012.03.017)", "key": {"[1]": {"settings": "Crystal, Calculated from knudsen effusion weight loss"}, "[2]": {"assay": "molar enthalpy of vaporization or sublimation", "settings": "298.15 K; Crystal; drop calorimetry"}}, "note": "Where “and” joins values, the source holds several entries; their conditions need not be identical. Equal entries are not always repeated. Numbers after ± are expanded uncertainties.", "data": [{"smiles": "NC(=O)C1c2ccccc2Oc2ccccc21", "note": "[9H-xanthene-9-carboxamide]", "values": [{"measurement": "vapor or sublimation pressure", "setting": "[1]; 399.14 K", "value": "0.0001229 ± 2.1e-05 kPa and 0.0001189 ± 2e-05 kPa and 0.000116 ± 2e-05 kPa"}, {"measurement": "vapor or sublimation pressure", "setting": "[1]; 401.14 K", "value": "0.000154 ± 2.1e-05 kPa and 0.0001484 ± 2.1e-05 kPa and 0.000144 ± 2.1e-05 kPa"}, {"measurement": "vapor or sublimation pressure", "setting": "[1]; 403.16 K", "value": "0.0001893 ± 2.1e-05 kPa and 0.0001856 ± 2.1e-05 kPa and 0.0001767 ± 2.1e-05 kPa"}, {"measurement": "vapor or sublimation pressure", "setting": "[1]; 405.15 K", "value": "0.0002159 ± 2.1e-05 kPa and 0.0002174 ± 2.1e-05 kPa"}, {"measurement": "vapor or sublimation pressure", "setting": "[1]; 407.19 K", "value": "0.0002731 ± 2.2e-05 kPa and 0.0002662 ± 2.2e-05 kPa"}, {"measurement": "vapor or sublimation pressure", "setting": "[1]; 409.17 K", "value": "0.0003106 ± 2.3e-05 kPa and 0.0002981 ± 2.3e-05 kPa and 0.0003072 ± 2.3e-05 kPa"}, {"measurement": "vapor or sublimation pressure", "setting": "[1]; 411.15 K", "value": "0.0003968 ± 2.4e-05 kPa and 0.0003833 ± 2.4e-05 kPa"}, {"measurement": "vapor or sublimation pressure", "setting": "[1]; 413.19 K", "value": "0.0004758 ± 2.6e-05 kPa and 0.0004828 ± 2.6e-05 kPa and 0.0004614 ± 2.6e-05 kPa"}, {"measurement": "vapor or sublimation pressure", "setting": "[1]; 415.15 K", "value": "0.0005574 ± 2.8e-05 kPa and 0.0005463 ± 2.8e-05 kPa"}, {"measurement": "vapor or sublimation pressure", "setting": "[1]; 417.17 K", "value": "0.000649 ± 3e-05 kPa and 0.0006492 ± 3e-05 kPa"}, {"measurement": "vapor or sublimation pressure", "setting": "[1]; 419.18 K", "value": "0.0007769 ± 3.4e-05 kPa and 0.0008205 ± 3.5e-05 kPa"}, {"measurement": "vapor or sublimation pressure", "setting": "[1]; 421.2 K", "value": "0.0009516 ± 3.9e-05 kPa and 0.0009609 ± 3.9e-05 kPa"}, {"measurement": "molar enthalpy", "setting": "[2]", "value": "31.1 ± 1", "unit": "kcal/mol"}]}, {"smiles": "OC1c2ccccc2Oc2ccccc21", "note": "[9H-xanthen-9-ol]", "values": [{"measurement": "vapor or sublimation pressure", "setting": "[1]; 333.18 K", "value": "6.91e-05 ± 2e-05 kPa and 5.67e-05 ± 2e-05 kPa and 6.28e-05 ± 2e-05 kPa"}, {"measurement": "vapor or sublimation pressure", "setting": "[1]; 335.14 K", "value": "8.54e-05 ± 2e-05 kPa and 8.17e-05 ± 2e-05 kPa and 7.79e-05 ± 2e-05 kPa"}, {"measurement": "vapor or sublimation pressure", "setting": "[1]; 337.08 K", "value": "0.0001045 ± 2e-05 kPa and 0.0001126 ± 2e-05 kPa and 0.0001038 ± 2e-05 kPa"}, {"measurement": "vapor or sublimation pressure", "setting": "[1]; 339.18 K", "value": "0.0001355 ± 2.1e-05 kPa and 0.0001321 ± 2.1e-05 kPa and 0.000152 ± 2.1e-05 kPa"}, {"measurement": "vapor or sublimation pressure", "setting": "[1]; 341.13 K", "value": "0.0001838 ± 2.1e-05 kPa and 0.0001813 ± 2.1e-05 kPa and 0.0001645 ± 2.1e-05 kPa"}, {"measurement": "vapor or sublimation pressure", "setting": "[1]; 343.08 K", "value": "0.0002256 ± 2.2e-05 kPa and 0.0002318 ± 2.2e-05 kPa and 0.0002156 ± 2.1e-05 kPa"}, {"measurement": "vapor or sublimation pressure", "setting": "[1]; 345.08 K", "value": "0.0002616 ± 2.2e-05 kPa and 0.0002749 ± 2.2e-05 kPa and 0.0002595 ± 2.2e-05 kPa"}, {"measurement": "vapor or sublimation pressure", "setting": "[1]; 347.14 K", "value": "0.0003355 ± 2.3e-05 kPa and 0.0003321 ± 2.3e-05 kPa and 0.0003104 ± 2.3e-05 kPa"}, {"measurement": "vapor or sublimation pressure", "setting": "[1]; 349.17 K", "value": "0.0004364 ± 2.5e-05 kPa and 0.0003742 ± 2.4e-05 kPa and 0.0003877 ± 2.4e-05 kPa"}, {"measurement": "vapor or sublimation pressure", "setting": "[1]; 351.07 K", "value": "0.0005411 ± 2.8e-05 kPa and 0.0005557 ± 2.8e-05 kPa and 0.0005348 ± 2.8e-05 kPa"}, {"measurement": "vapor or sublimation pressure", "setting": "[1]; 353.12 K", "value": "0.0006853 ± 3.1e-05 kPa and 0.0006411 ± 3e-05 kPa and 0.0006134 ± 3e-05 kPa"}, {"measurement": "vapor or sublimation pressure", "setting": "[1]; 355.18 K", "value": "0.0008786 ± 3.7e-05 kPa and 0.0007534 ± 3.3e-05 kPa and 0.0007633 ± 3.4e-05 kPa"}]}, {"smiles": "O=C(O)C1c2ccccc2Oc2ccccc21", "note": "[9H-xanthene-9-carboxylic acid]", "values": [{"measurement": "vapor or sublimation pressure", "setting": "[1]; 383.08 K", "value": "0.000119 ± 2e-05 kPa and 0.0001121 ± 2e-05 kPa and 0.0001132 ± 2e-05 kPa"}, {"measurement": "vapor or sublimation pressure", "setting": "[1]; 385.15 K", "value": "0.0001477 ± 2.1e-05 kPa and 0.0001432 ± 2.1e-05 kPa and 0.0001353 ± 2.1e-05 kPa"}, {"measurement": "vapor or sublimation pressure", "setting": "[1]; 387.25 K", "value": "0.0001726 ± 2.1e-05 kPa and 0.0001686 ± 2.1e-05 kPa and 0.0001619 ± 2.1e-05 kPa"}, {"measurement": "vapor or sublimation pressure", "setting": "[1]; 389.12 K", "value": "0.0002124 ± 2.1e-05 kPa and 0.0002049 ± 2.1e-05 kPa and 0.0002165 ± 2.1e-05 kPa"}, {"measurement": "vapor or sublimation pressure", "setting": "[1]; 391.13 K", "value": "0.0002584 ± 2.2e-05 kPa and 0.0002449 ± 2.2e-05 kPa"}, {"measurement": "vapor or sublimation pressure", "setting": "[1]; 393.14 K", "value": "0.0003154 ± 2.3e-05 kPa and 0.0003062 ± 2.3e-05 kPa"}, {"measurement": "vapor or sublimation pressure", "setting": "[1]; 395.13 K", "value": "0.0003811 ± 2.4e-05 kPa and 0.0003776 ± 2.4e-05 kPa and 0.0003653 ± 2.4e-05 kPa"}, {"measurement": "vapor or sublimation pressure", "setting": "[1]; 397.11 K", "value": "0.0004814 ± 2.6e-05 kPa and 0.0004632 ± 2.6e-05 kPa"}, {"measurement": "vapor or sublimation pressure", "setting": "[1]; 399.14 K", "value": "0.0005597 ± 2.8e-05 kPa and 0.0005447 ± 2.8e-05 kPa and 0.0005518 ± 2.8e-05 kPa"}, {"measurement": "vapor or sublimation pressure", "setting": "[1]; 401.13 K", "value": "0.0006834 ± 3.1e-05 kPa and 0.0006937 ± 3.2e-05 kPa and 0.0006737 ± 3.1e-05 kPa"}, {"measurement": "vapor or sublimation pressure", "setting": "[1]; 403.12 K", "value": "0.0008362 ± 3.6e-05 kPa and 0.0008293 ± 3.6e-05 kPa and 0.0007816 ± 3.4e-05 kPa"}, {"measurement": "vapor or sublimation pressure", "setting": "[1]; 405.15 K", "value": "0.0009639 ± 3.9e-05 kPa and 0.0009409 ± 3.9e-05 kPa"}, {"measurement": "molar enthalpy", "setting": "[2]", "value": "30 ± 0.717", "unit": "kcal/mol"}]}]}
